Results as given in patent publication US8288548B2, “Oxazolo[5-4-b]pyridin-5-yl compounds” (Eli Lilly and Company, priority 2010, dated 2012).
Marks after values point to notes of the source that are not given here.

What was measured:
[1] = test system: A2780 human ovarian carcinoma cells; assay: A2780 xenograft model, tumor growth inhibition; format: in vivo, CD1 nu/nu mice; conditions: 4 day on, 3 d off
Description: (§1) Female CD1 nu/nu mice are obtained from Charles River Laboratories at approximately 22-25 g. After 1 week acclimation, 2×10^6 A2780 human ovarian carcinoma cells are injected subcutaneously in the rear flank of each mouse in a 0.2 mL volume in a 1:1 mixture of cell culture media and BD […]™ matrix. Tumor size is monitored by caliper measurement twice per week. When the average tumor size reaches 150 mm^3, animals are randomized into groups of 10. p38 MAP kinase inhibitor treatment is initiated after randomization. Example 2 is dosed orally in a 0.2 mL volume of 1% HEC, 0.25% TWEEN® 80, 0.05% antifoam (HEC/TWEEN®). The compound is dosed at doses of 1, 3, and 10 mg/kg. Dosing is performed three times per day (TID) on a schedule of 4 days on, 3 days off. Three cycles of dosing is performed. Tumor volume is monitored twice per week during the dosing period, and efficacy (tumor growth inhibition) is monitored relative to a vehicle control group (n=10 animals). At 1, 2 and 8 hours after the last p38 MAP kinase inhibitor dose, plasma is obtained from animals to determine the circulating levels of compound in the animals.

[2] = Plasma concentration after last dose in the A2780 xenograft model; format: in vivo, CD1 nu/nu mice
Description: as §1

OPM-2 cells = assay: OPM-2 multiple myeloma xenograft model; format: in vivo, CB-17 SCID mice; conditions: PO, BID
Description: Female CB-17 SCID mice are obtained from Taconic at 20-22 g weight. After acclimating for one week, mice are irradiated with a dose of 2.5 Gray. Within 24 hours following irradiation, mice are injected sub-cutaneously in the rear flank with 1.0×10^7 OPM-2 cells in a 0.2 mL volume in a 1:1 mixture of cell culture media and BD […]™ matrix. Tumor size is monitored by caliper measurement twice per week. When the tumor size reaches 100-150 mm^3, animals are randomized into dose groups. Compound treatment is initiated after randomization. Example 2 is dosed orally in a 0.2 mL volume of 1% HEC, 0.25% TWEEN® 80, 0.05% antifoam (HEC/TWEEN®). The compound is dosed at doses of 15 and 30 mg/kg. Dosing is performed two times per day (BID) for 28 days of treatment. Tumor volume is monitored twice per week during the dosing period, and efficacy (tumor growth inhibition) is monitored relative to a vehicle control group (n=10 animals).

[3] = test system: 786-O human renal cell carcinoma cells; assay: 786-O xenograft model in combination with sunitinib; format: in vivo, athymic nude mice; conditions: BID x 28
Description: Female athymic nude mice are obtained from Harlan Labs at a weight of 24-26 g. […] Tumor size is monitored by caliper measurement twice per week. […] The compound is dosed orally in a 0.2 mL volume of 1% HEC, 0.25% TWEEN® 80, 0.05% antifoam (HEC/TWEEN®). […] Tumor volume is monitored twice per week and efficacy (tumor growth inhibition) is compared relative to vehicle-treated control animals. […] Statistical assessment of synergy was performed using two-way repeated measures analysis of variance on log tumor volume vs. time.

Molecule: 2-[5-(2,4-Difluorophenyl)-4-[2-[[(1S)-3-methoxy-1-methyl-propyl]amino]oxazolo[5,4-b]pyridin-5-yl]-1H-imidazol-2-yl]-2-methyl-propan-1-ol, methanesulfonate [Example 2]
- Tumor Growth Inhibition (%) ([1]; 1 mg/kg PO TID, Day 20): 70.6%
- Tumor Growth Inhibition (%) ([1]; 1 mg/kg PO TID, Day 23): 76.6%
- Tumor Growth Inhibition (%) ([1]; 1 mg/kg PO TID, Day 26): 76%
- Tumor Growth Inhibition (%) ([1]; 1 mg/kg PO TID, Day 29 (final)): 78.3%
- Tumor Growth Inhibition (%) ([1]; 3 mg/kg PO TID, Day 20): 32.5%
- Tumor Growth Inhibition (%) ([1]; 3 mg/kg PO TID, Day 23): 47.7%
- Tumor Growth Inhibition (%) ([1]; 3 mg/kg PO TID, Day 26): 42.7%
- Tumor Growth Inhibition (%) ([1]; 3 mg/kg PO TID, Day 29 (final)): 37.7%
- Tumor Growth Inhibition (%) ([1]; 10 mg/kg PO TID, Day 20): 60%
- Tumor Growth Inhibition (%) ([1]; 10 mg/kg PO TID, Day 23): 71.2%
- Tumor Growth Inhibition (%) ([1]; 10 mg/kg PO TID, Day 26): 72.8%
- Tumor Growth Inhibition (%) ([1]; 10 mg/kg PO TID, Day 29 (final)): 74.8%
- Mean Plasma Concentration (μM) at time (hour) post-last dose ([2]; 1 mg/kg PO TID, 1 hour post-last dose): 0.0263 µM
- Mean Plasma Concentration (μM) at time (hour) post-last dose ([2]; 1 mg/kg PO TID, 2 hour post-last dose): 0.0146 µM
- Mean Plasma Concentration (μM) at time (hour) post-last dose ([2]; 3 mg/kg PO TID, 1 hour post-last dose): 0.0526 µM
- Mean Plasma Concentration (μM) at time (hour) post-last dose ([2]; 3 mg/kg PO TID, 2 hour post-last dose): 0.0604 µM
- Mean Plasma Concentration (μM) at time (hour) post-last dose ([2]; 3 mg/kg PO TID, 3 hour post-last dose): 0.0042 µM
- Mean Plasma Concentration (μM) at time (hour) post-last dose ([2]; 10 mg/kg PO TID, 1 hour post-last dose): 0.4952 µM
- Mean Plasma Concentration (μM) at time (hour) post-last dose ([2]; 10 mg/kg PO TID, 2 hour post-last dose): 0.3978 µM
- Mean Plasma Concentration (μM) at time (hour) post-last dose ([2]; 10 mg/kg PO TID, 3 hour post-last dose): 0.0243 µM
- Mean tumor size (mm3) (OPM-2 cells; 15 mpk, Day 4): 101.69 mm3
- Mean tumor size (mm3) (OPM-2 cells; 15 mpk, Day 8): 87.96 mm3
- Mean tumor size (mm3) (OPM-2 cells; 15 mpk, Day 11): 104.9 mm3
- Mean tumor size (mm3) (OPM-2 cells; 15 mpk, Day 15): 104.21 mm3
- Mean tumor size (mm3) (OPM-2 cells; 15 mpk, Day 18): 120.17 mm3
- Mean tumor size (mm3) (OPM-2 cells; 15 mpk, Day 21): 182.47 mm3
- Mean tumor size (mm3) (OPM-2 cells; 15 mpk, Day 25): 169.53 mm3
- Mean tumor size (mm3) (OPM-2 cells; 15 mpk, Day 29): 214.28 mm3
- Mean tumor size (mm3) (OPM-2 cells; 15 mpk, Day 33): 326.29 mm3
- Mean tumor size (mm3) (OPM-2 cells; 15 mpk, Day 36): 384.59 mm3
- Mean tumor size (mm3) (OPM-2 cells; 15 mpk, Day 43): 628.46 mm3
- Mean tumor size (mm3) (OPM-2 cells; 15 mpk, Day 46): 700.62 mm3
- Mean tumor size (mm3) (OPM-2 cells; 15 mpk, Day 49): 937.29 mm3
- Mean tumor size (mm3) (OPM-2 cells; 15 mpk, Day 53): 1138.19 mm3
- Mean tumor size (mm3) (OPM-2 cells; 30 mpk, Day 4): 97.8 mm3
- Mean tumor size (mm3) (OPM-2 cells; 30 mpk, Day 8): 90.78 mm3
- Mean tumor size (mm3) (OPM-2 cells; 30 mpk, Day 11): 118.46 mm3
- Mean tumor size (mm3) (OPM-2 cells; 30 mpk, Day 15): 95.34 mm3
- Mean tumor size (mm3) (OPM-2 cells; 30 mpk, Day 18): 103.71 mm3
- Mean tumor size (mm3) (OPM-2 cells; 30 mpk, Day 21): 115.16 mm3
- Mean tumor size (mm3) (OPM-2 cells; 30 mpk, Day 25): 155.27 mm3
- Mean tumor size (mm3) (OPM-2 cells; 30 mpk, Day 29): 154.83 mm3
- Mean tumor size (mm3) (OPM-2 cells; 30 mpk, Day 33): 224.14 mm3
- Mean tumor size (mm3) (OPM-2 cells; 30 mpk, Day 36): 243.32 mm3
- Mean tumor size (mm3) (OPM-2 cells; 30 mpk, Day 43): 407.07 mm3
- Mean tumor size (mm3) (OPM-2 cells; 30 mpk, Day 46): 527.14 mm3
- Mean tumor size (mm3) (OPM-2 cells; 30 mpk, Day 49): 642.22 mm3
- Mean tumor size (mm3) (OPM-2 cells; 30 mpk, Day 53): 812.48 mm3

Molecule: CCN(CC)CCNC(=O)c1c(C)[nH]c(/C=C2\C(=O)Nc3ccc(F)cc32)c1C [Sunitinib]
- % Tumor Growth Inhibition ([3]; Sunitinib 10 mg/kg PO, Day 17): −1.6%
- % Tumor Growth Inhibition ([3]; Sunitinib 10 mg/kg PO, Day 21): 2.9%
- % Tumor Growth Inhibition ([3]; Sunitinib 10 mg/kg PO, Day 24): −16.3%
- % Tumor Growth Inhibition ([3]; Sunitinib 10 mg/kg PO, Day 28): −21.2%
- % Tumor Growth Inhibition ([3]; Sunitinib 20 mg/kg PO, Day 17): −55.9%
- % Tumor Growth Inhibition ([3]; Sunitinib 20 mg/kg PO, Day 21): 31.5%
- % Tumor Growth Inhibition ([3]; Sunitinib 20 mg/kg PO, Day 24): 18%
- % Tumor Growth Inhibition ([3]; Sunitinib 20 mg/kg PO, Day 28): 34.5%
- % Tumor Growth Inhibition ([3]; Sunitinib 20 mg/kg PO, Day 31): 35.4* %

Molecule: COCC[C@H](C)Nc1nc2ccc(-c3nc(C(C)(C)CO)[nH]c3-c3ccc(F)cc3F)nc2o1.Cl [Example 3, 2-[5-(2,4-Difluorophenyl)-4-[2-[[(1S)-3-methoxy-1-methyl-propyl]amino]oxazolo[5,4-b]pyridin-5-yl]-1H-imidazol-2-yl]-2-methyl-propan-1-ol, hydrochloride]
- % Tumor Growth Inhibition ([3]; Example 3 15 mg/kg PO, Day 17): −35.5%
- % Tumor Growth Inhibition ([3]; Example 3 15 mg/kg PO, Day 21): −23%
- % Tumor Growth Inhibition ([3]; Example 3 15 mg/kg PO, Day 24): −52.4%
- % Tumor Growth Inhibition ([3]; Example 3 15 mg/kg PO, Day 28): −74.1* %
- % Tumor Growth Inhibition ([3]; Example 3 15 mg/kg PO, Day 31): −58.8* %
